Measurements as given in patent US20090312384A1, “Benzimidazole As Cooling Compounds” (priority 2006, published 2009).

Experiments:
panelists = experiment: Panel tasting of aqueous solutions for cooling intensity versus menthol at 2 ppm; format: in vivo; settings: aqueous solution; concentration with cooling intensity similar or slightly higher than a solution of menthol at 2 ppm
Text: Experiments on cooling properties/intensities.
A group of panelists was asked to taste various aqueous solutions of compounds of formula (I) and to indicate which solutions had cooling intensities similar or slightly higher than that of a solution of menthol at 2 ppm.

panelist = experiment: Application in toothpaste: panelist's teeth brushed with toothgel containing the cooling compound; format: in vivo; settings: 0.20 g of 5% (w/w) ethanol solution in opaque toothgel with peppermint oil and saccharin, after brushing and rinsing
Description: [table] The chemicals were mixed in the toothgel, a piece of toothgel was put on a toothbrush and a panelist's teeth were brushed. The mouth was rinsed with water and the water was spit out. […] The cooling perception lasted for 90 minutes.

melting point	Structure (SMILES)	Concentration (panelists)	Duration of cooling perception (panelist)	Cooling sensation felt by the panelist (panelist; all areas of the mouth)
	COc1ccc(C(=O)OC(=Cc2nc3ccccc3n2C)c2ccc(OC)cc2)cc1 [1-(4-methoxyphenyl)-2-(1-methyl-1H-benzo[d]imidazol-2-yl)vinyl 4-methoxybenzoate]	0.5 ppm		
	CC1CCC(C(C)C)C(O)C1 (stereo not drawn) [Example 1-Menthol, 1-Menthol, reference compound]	2 ppm solution		
155 to 160 °C	COc1ccc(C(=O)OC(=Cc2nc3cc(C)ccc3n2C(C)C)c2ccc(Cl)cc2)cc1 [Example 2, 1-(4-chlorophenyl)-2-(1-isopropyl-5-methyl-1H-benzo[d]imidazol-2-yl)vinyl 4-methoxybenzoate]			
147 to 152 °C	COc1ccc(C(=O)OC(=Cc2nc3cc(C)ccc3n2C(C)C)c2ccc(OC)cc2)cc1 [Example 3, 2-(1-isopropyl-5-methyl-1H-benzo[d]imidazol-2-yl)-1-(4-methoxyphenyl)vinyl 4-methoxybenzoate]	0.5 ppm		
158 to 165 °C	Cc1ccc2nc(C=C(OC(=O)c3ccc(Cl)cc3)c3ccc(Cl)cc3)n(C(C)C)c2c1 [Example 4, 1-(4-chlorophenyl)-2-(1-isopropyl-6-methyl-1H-benzo[d]imidazol-2-yl)vinyl 4-chlorobenzoate]			
125 to 130 °C	COc1ccc(C(=O)OC(=Cc2nc3ccc(C)cc3n2C(C)C)c2ccc(OC)cc2)cc1 [Example 5, 2-(1-isopropyl-6-methyl-1H-benzo[d]imidazol-2-yl)-1-(4-methoxyphenyl)vinyl 4-methoxybenzoate]	0.5 ppm	90 min	intense cooling sensation
	Cc1ccc(C(=O)OC(=Cc2nc3ccccc3n2C)c2ccc(C)cc2)cc1 [Example 8, 2-(1-methyl-1H-benzo[d]imidazol-2-yl)-1-p-tolylvinyl 4-methylbenzoate]	2.0 ppm		
	CCNC(=O)C1CC(C)CCC1C(C)C (stereo not drawn) [N-ethyl p-menthanecarboxamide (WS-3), N-ethyl p-menthanecarboxamide, reference compound]	1.5 ppm		
